# Source: PubChem BioAssay AID256 (DTP/NCI, 2004)
# “And” between values parts separate entries of the source, which are not always exact repeats. Identical values can stand only once. Inconclusive results and toxic doses are left out.
# Tested on: CD2F1 mice, L1210 leukemia ip, survival T/C
# Test: NCI In Vivo Anticancer Drug Screen. Data for tumor model L1210 Leukemia (intraperitoneal) in CD2F1 (CDF1) mice
# Conditions: higher = longer survival
# Procedure, shortened: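 Compound-dosed mice with transplantable tumor versus matched vehicle controls; endpoint ratio T/C reported.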
# [1] = endpoint: mean survival time, dose: 50.0 mg/kg/injection, schedule: Q04DX002 (ip), vehicle: saline with Tween-80
# [2] = endpoint: mean survival time, dose: 100.0 mg/kg/injection, schedule: Q04DX002 (ip), vehicle: saline with Tween-80
# [3] = endpoint: mean survival time, dose: 100.0 mg/kg/injection, schedule: Q01DX009 (ip), vehicle: saline with Tween-80
# [4] = endpoint: mean survival time, dose: 75.0 mg/kg/injection, schedule: Q01DX001 (ip), vehicle: saline
# [5] = endpoint: mean survival time, dose: 100.0 mg/kg/injection, schedule: Q01DX001 (ip), vehicle: saline with Tween-80
# [6] = endpoint: mean survival time, dose: 200.0 mg/kg/injection, schedule: Q01DX001 (ip), vehicle: saline with Tween-80
# [7] = endpoint: mean survival time, dose: 400.0 mg/kg/injection, schedule: Q01DX001 (ip), vehicle: saline with Tween-80
# [8] = endpoint: mean survival time, dose: 200.0 mg/kg/injection, schedule: Q04DX002 (ip), vehicle: saline with Tween-80
# [9] = endpoint: mean survival time, dose: 100.0 mg/kg/injection, schedule: Q04DX003 (ip), vehicle: saline with Tween-80
# [10] = endpoint: mean survival time, dose: 200.0 mg/kg/injection, schedule: Q04DX003 (ip), vehicle: saline with Tween-80
# [11] = endpoint: mean survival time, dose: 400.0 mg/kg/injection, schedule: Q04DX003 (ip), vehicle: saline with Tween-80
# [12] = endpoint: mean survival time, dose: 200.0 mg/kg/injection, schedule: Q01DX009 (ip), vehicle: saline with Tween-80
compound,measurement,setting,value
CCOC(=O)C(CCC(O)C#N)(NC(C)=O)C(=O)OCC (configuration not stated),T/C,"endpoint: mean survival time, dose: 25.0 mg/kg/injection, schedule: Q04DX002 (ip), vehicle: saline with Tween-80",101 % of control
same,T/C,[1],96 % of control
same,T/C,[2],100 % of control
NC(=S)c1cccc(OCCOc2cccc3ccccc23)c1,T/C,"endpoint: mean survival time, dose: 25.0 mg/kg/injection, schedule: Q01DX009 (ip), vehicle: saline with Tween-80",92 % of control
same,T/C,"endpoint: mean survival time, dose: 50.0 mg/kg/injection, schedule: Q01DX009 (ip), vehicle: saline with Tween-80",95 % of control
same,T/C,[3],88 % of control
O=C(OCC(I)CC(F)(F)C(F)(F)F)c1ccc2cc(C(=O)OC(I)CC(F)(F)C(F)(F)F)ccc2c1 (configuration not stated),T/C,"endpoint: mean survival time, dose: 75.0 mg/kg/injection, schedule: Q01DX001 (ip), vehicle: other",101 % of control
same,T/C,"endpoint: mean survival time, dose: 150.0 mg/kg/injection, schedule: Q01DX001 (ip), vehicle: other",91 % of control
same,T/C,"endpoint: mean survival time, dose: 300.0 mg/kg/injection, schedule: Q01DX001 (ip), vehicle: other",97 % of control
O=C1c2cccc(Cl)c2C(=O)c2c1cccc2[N+](=O)[O-],T/C,"endpoint: mean survival time, dose: 100.0 mg/kg/injection, schedule: Q04DX003 (ip), vehicle: Klucel (hydroxypropylcellulose) (HPC)",90 % of control
same,T/C,"endpoint: mean survival time, dose: 200.0 mg/kg/injection, schedule: Q04DX003 (ip), vehicle: Klucel (hydroxypropylcellulose) (HPC)",102 % of control
same,T/C,"endpoint: mean survival time, dose: 400.0 mg/kg/injection, schedule: Q04DX003 (ip), vehicle: Klucel (hydroxypropylcellulose) (HPC)",98 % of control
CCCCC(CCCC)CS(=O)[O-].[C-]#[O+].[C-]#[O+].[Fe+6].[c-]1[c-][c-][cH-][c-]1,T/C,"endpoint: mean survival time, dose: 25.0 mg/kg/injection, schedule: Q04DX002 (ip), vehicle: saline",102 % of control
same,T/C,"endpoint: mean survival time, dose: 50.0 mg/kg/injection, schedule: Q04DX002 (ip), vehicle: saline",87 % of control
same,T/C,"endpoint: mean survival time, dose: 100.0 mg/kg/injection, schedule: Q04DX002 (ip), vehicle: saline",106 % of control
CN(C)CCC(C#N)(c1ccccc1)c1ccccc1,T/C,[4],102 % of control
same,T/C,"endpoint: mean survival time, dose: 150.0 mg/kg/injection, schedule: Q01DX001 (ip), vehicle: saline",100 % of control
[C-]#[O+].[Cl][Sn]([Cl])[Cl].[Cl][Sn]([Cl])[Cl].[Pt].c1ccc([PH+](c2ccccc2)c2ccccc2)cc1.c1ccc([PH+](c2ccccc2)c2ccccc2)cc1,T/C,"endpoint: median survival time, dose: 3.12 mg/kg/injection, schedule: Q04DX003 (ip), vehicle: saline with Tween-80",108 % of control
same,T/C,"endpoint: median survival time, dose: 6.25 mg/kg/injection, schedule: Q04DX003 (ip), vehicle: saline with Tween-80",106 % of control
same,T/C,"endpoint: median survival time, dose: 12.5 mg/kg/injection, schedule: Q04DX003 (ip), vehicle: saline with Tween-80",110 % of control
same,T/C,"endpoint: median survival time, dose: 25.0 mg/kg/injection, schedule: Q04DX003 (ip), vehicle: saline with Tween-80",113 % of control
same,T/C,"endpoint: median survival time, dose: 50.0 mg/kg/injection, schedule: Q04DX003 (ip), vehicle: saline with Tween-80",110 % of control
same,T/C,"endpoint: median survival time, dose: 100.0 mg/kg/injection, schedule: Q04DX003 (ip), vehicle: saline with Tween-80",112 % of control
same,T/C,"endpoint: median survival time, dose: 200.0 mg/kg/injection, schedule: Q04DX003 (ip), vehicle: saline with Tween-80",108 % of control
Nc1nc(/C=C/c2ccc([N+](=O)[O-])cc2)c(-c2ccc(Cl)c(Cl)c2)c(=O)[nH]1,T/C,[5],92 % of control
same,T/C,[6],89 % of control
same,T/C,[7],90 % of control
CCCCCCCS(=O)CCCl (configuration not stated),T/C,[2],96 % of control
same,T/C,[8],108 % of control
O=C(O)COc1cc(Cl)c(Cl)cc1Cl (tested in a mixture with another compound),T/C,[2],96 % of control
same,T/C,[8],114 % of control
CN(C)CCCc1c2ccccc2nc2ccc(Cl)cc12,T/C,"endpoint: mean survival time, dose: 12.0 mg/kg/injection, schedule: Q04DX003 (ip), vehicle: saline",102 % of control
same,T/C,"endpoint: mean survival time, dose: 25.0 mg/kg/injection, schedule: Q04DX003 (ip), vehicle: saline",94 % of control
same,T/C,"endpoint: mean survival time, dose: 50.0 mg/kg/injection, schedule: Q04DX003 (ip), vehicle: saline",98 % of control
CN(C)/C=C/C#N,T/C,[4],102 % of control
CC(C)(CO)c1ccc(C(c2ccccc2)c2ccccc2)cc1,T/C,"endpoint: mean survival time, dose: 50.0 mg/kg/injection, schedule: Q01DX009 (ip), vehicle: other",96 % of control
same,T/C,"endpoint: mean survival time, dose: 100.0 mg/kg/injection, schedule: Q01DX009 (ip), vehicle: other",101 % of control
same,T/C,"endpoint: mean survival time, dose: 200.0 mg/kg/injection, schedule: Q01DX009 (ip), vehicle: other",96 % of control
O=C(NC/C(Br)=C/Br)Nc1cccc2c1CCCC2,T/C,[9],96 % of control
same,T/C,[10],101 % of control
same,T/C,[11],90 % of control
O=C(O)/C=C\C(=O)Nc1ccc(Cl)cc1,T/C,[3],102 % of control
same,T/C,[9],108 % of control
same,T/C,[12],93 % of control
same,T/C,[10],97 % of control
same,T/C,"endpoint: mean survival time, dose: 400.0 mg/kg/injection, schedule: Q01DX009 (ip), vehicle: saline with Tween-80",98 % of control
same,T/C,[11],94 % of control
CS(=O)(=O)Oc1ccccc1OS(C)(=O)=O,T/C,[1],113 % of control
same,T/C,[2],113 % of control
same,T/C,[8],101 % of control
C1CCC(C2CCCC[N-]2)[N-]C1.C1CCC(C2CCCC[N-]2)[N-]C1.O=C(O)C(=O)O.[Ru+4] (configuration not stated),T/C,"endpoint: mean survival time, dose: 3.13 mg/kg/injection, schedule: Q04DX003 (ip), vehicle: water",101 % of control
same,T/C,"endpoint: mean survival time, dose: 6.25 mg/kg/injection, schedule: Q04DX003 (ip), vehicle: water",93 % of control
same,T/C,"endpoint: mean survival time, dose: 12.5 mg/kg/injection, schedule: Q04DX003 (ip), vehicle: water",96 % of control
same,T/C,"endpoint: mean survival time, dose: 25.0 mg/kg/injection, schedule: Q04DX003 (ip), vehicle: water",93 % of control
same,T/C,"endpoint: mean survival time, dose: 50.0 mg/kg/injection, schedule: Q04DX003 (ip), vehicle: water",93 % of control
same,T/C,"endpoint: mean survival time, dose: 100.0 mg/kg/injection, schedule: Q04DX003 (ip), vehicle: water",95 % of control
same,T/C,"endpoint: mean survival time, dose: 200.0 mg/kg/injection, schedule: Q04DX003 (ip), vehicle: water",91 % of control
Nc1nc2c(ncn2-c2cccc(NC(=O)c3cc(S(=O)(=O)F)ccc3Cl)c2)c(=O)[nH]1,T/C,[5],88 % of control
same,T/C,[6],94 % of control
same,T/C,[7],94 % of control
O=c1ccn(Cc2ccc([N+](=O)[O-])cc2)c(=O)[nH]1,T/C,[5],94 % of control
same,T/C,[6],90 % of control
same,T/C,[7],98 % of control
Cc1cc2c(C(C)C)c(O)c(O)c(C=O)c2c(O)c1-c1c(C)cc2c(C(C)C)c(O)c(O)c(C=O)c2c1O,T/C,"endpoint: median survival time, dose: 6.25 mg/kg/injection, schedule: Q01DX009 (ip), vehicle: saline with Tween-80",110 % of control
same,T/C,"endpoint: median survival time, dose: 12.5 mg/kg/injection, schedule: Q01DX009 (ip), vehicle: saline with Tween-80",101 % of control
CCC(CC)(C(N)=O)C(N)=O,T/C,[2],108 % of control
same,T/C,[8],100 % of control
same,T/C,"endpoint: mean survival time, dose: 400.0 mg/kg/injection, schedule: Q04DX002 (ip), vehicle: saline with Tween-80",100 % of control
CCCC(=O)Oc1ccc(/C=N/NC(N)=S)nc1,T/C,[3],182 % of control
same,T/C,[2],115 % of control
same,T/C,"endpoint: mean survival time, dose: 178.0 mg/kg/injection, schedule: Q01DX001 (ip), vehicle: saline with Tween-80",116 % of control
same,T/C,"endpoint: mean survival time, dose: 178.0 mg/kg/injection, schedule: Q04DX003 (ip), vehicle: saline with Tween-80",118 % of control
same,T/C,[12],119 % of control
same,T/C,"endpoint: mean survival time, dose: 266.0 mg/kg/injection, schedule: Q01DX001 (ip), vehicle: saline with Tween-80",113 % of control
same,T/C,"endpoint: mean survival time, dose: 266.0 mg/kg/injection, schedule: Q04DX003 (ip), vehicle: saline with Tween-80",121 % of control
same,T/C,[7],95 % of control
same,T/C,[11],117 % of control
same,T/C,"endpoint: mean survival time, dose: 600.0 mg/kg/injection, schedule: Q01DX001 (ip), vehicle: saline with Tween-80",124 % of control
same,T/C,"endpoint: mean survival time, dose: 900.0 mg/kg/injection, schedule: Q01DX001 (ip), vehicle: saline with Tween-80",161 % of control
same,T/C,"endpoint: median survival time, dose: 36.0 mg/kg/injection, schedule: Q01DX005 (ip), vehicle: saline with Tween-80",151 % of control
same,T/C,"endpoint: median survival time, dose: 50.0 mg/kg/injection, schedule: Q01DX009 (ip), vehicle: saline with Tween-80",172 % of control
same,T/C,"endpoint: median survival time, dose: 60.0 mg/kg/injection, schedule: Q01DX005 (ip), vehicle: saline with Tween-80",160 % of control
same,T/C,"endpoint: median survival time, dose: 100.0 mg/kg/injection, schedule: Q01DX005 (ip), vehicle: saline with Tween-80",162 % of control
same,T/C,"endpoint: median survival time, dose: 100.0 mg/kg/injection, schedule: Q01DX009 (ip), vehicle: saline with Tween-80",156 % of control and 247 % of control
same,T/C,"endpoint: median survival time, dose: 166.67 mg/kg/injection, schedule: Q01DX005 (ip), vehicle: saline with Tween-80",112 % of control
same,T/C,"endpoint: median survival time, dose: 200.0 mg/kg/injection, schedule: Q01DX009 (ip), vehicle: saline with Tween-80",164 % of control and 190 % of control
same,T/C,"endpoint: median survival time, dose: 400.0 mg/kg/injection, schedule: Q01DX009 (ip), vehicle: saline with Tween-80",113 % of control and 107 % of control
